Reference: a melting point compilation (Tetko et al.; mined from patent text by program, amines drawn as free bases though some values may be those of a salt)

SMILES | melting point [°C]
O=C(NC1CCCCC1)c1ccc(CCN2CC=C(c3c[nH]c(-c4ccc(F)cc4)c3-c3ccncc3)CC2)cc1 | 243 to 245
CC(OC1CCCN(Cc2ncn[nH]2)C1c1ccccc1)c1cc(C(F)(F)F)cc(C(F)(F)F)c1 (centres undefined) | 182 to 183
Cc1ccc(-c2cncn2-c2ccc(S(C)(=O)=O)cc2)cc1 | 156
COc1ccc(C=O)cc1-c1cccs1 | 137 to 138
CN(CCCCCNC(=NCCSCc1csc(NC(=N)N)n1)NC#N)CCN(Cc1ccc(F)cc1)c1ccccn1 | 103
O=C(CBr)Nc1c(Cl)cccc1C(=O)O | 173 to 175
COc1ccc(C(c2ccc(OC)c(O)c2)n2cncn2)cc1O | 218 to 219
CC1(C)OC[C@H](COc2ccc(C(=O)c3ccc([N+](=O)[O-])cc3)cc2)O1 | 92 to 93
C=C1CCc2sccc2C1=O | 47 to 49
COc1cccc(C2CNC(=O)C2c2cn3c4c(cccc24)CCC3)c1 (centres undefined) | 191 to 194
Cc1cccc(N(C)C(=O)c2cc(=O)n(C)c3ccc(C(O)(c4ccc(Cl)cc4)c4cncn4C)cc23)c1 (centres undefined) | 185
CN(C(=O)Nc1nc(OCC(F)(F)F)nc(OCC(F)(F)F)n1)c1ccc(Cl)cc1 | 218 to 219
CCOC(=O)C=C(C)NC(=O)Nc1cc(C(=O)OC(C)C)c(Cl)cc1F | 147 to 150
CCOc1ccc2c(c1)c(CC(C)NC(=O)OC(C)(C)C)c1n2CCC1 (centres undefined) | 89 to 90
CC(C)NC(=O)NCCSCc1ccc(CN(C)C)o1 | 65 to 67
Cc1ccc(NC(=O)c2c(C)cccc2N)cc1 | 217 to 220
O=C(O)CNC(=O)CSC(=O)c1ccccc1 | 140 to 142
Cn1c(COc2ccc(CC3SC(=O)NC3=O)cc2)nc2ccc(Oc3ccc(NC(=O)c4ccc5ccccc5c4)cc3)cc21 (centres undefined) | 221 to 223

SMILES | melting point [°C]
CCN1C(=O)C(C)(C)CCc2c1ccc(Nc1ncc(Cl)c(N[C@@H]3CCCC[C@H]3NS(C)(=O)=O)n1)c2OC | 123 to 126
CC(=O)OC(Cn1cncn1)c1ccc(Cl)cc1Cl (centres undefined) | 92 to 96
CCN1CC2CN(CC)CC(C1)C2O (centres undefined) | 61.5
CC(=O)Nc1nc(-c2cc(C)cc(C)c2)c(-c2ccncc2)s1 | 284 to 286
CCCCCCCCCCCCCCCCCCOC(=O)c1cccc(NC(=O)NS(=O)(=O)c2ccc(C)cc2)c1 | 96
CCCOc1cc([N+](=O)[O-])cc2cc(C(=O)OC)oc12 | 157
COC(=O)c1cc2ccnc(NS(=O)(=O)c3cccs3)c2[nH]1 | 159 to 160
O=c1c(-c2ccccc2)c(-c2ccccc2)oc2cc(OCC(O)CNC3CC3)ccc12 (centres undefined) | 135 to 137
COc1ccccc1Oc1c(NS(=O)(=O)c2ccc(C)cn2)nc(N2CCOCC2)nc1OCCO | 195 to 196
Cc1cc(C(=O)N2Cc3ccc(C(=O)NCc4cccnc4)n3Cc3ccccc32)ccc1-c1ccccc1 | 108 to 112
CCc1cc(=O)c2nc(OC)ccc2[nH]1 | 279 to 281
Cc1cccc(N2CCN(CCCCc3ccc(C4CCC(=O)N4)cc3)CC2)c1C (centres undefined) | 112 to 114
CCN(CC)C(=O)COC(=O)CCNC(=O)[C@H](Cc1ccc(-c2ccccc2)cc1)NCP(=O)(Oc1ccccc1)Oc1ccccc1 | 68 to 74
CN(C(=O)OC(C)(C)C)c1sc(-c2cncc(F)c2)nc1I | 70 to 71
CC(=O)N1c2ccccc2Sc2ccccc21 | 210 to 211
CN(CCCOc1ccc(CC2SC(=O)NC2=O)cc1)c1nc2ccccc2o1 (centres undefined) | 171 to 173
CCCCOc1ccc(S(=O)(=O)C2(C(=O)OCC)CCN(Cc3ccc(Cl)c(Cl)c3)CC2)cc1 | 86

Now from value to molecule:

melting point [°C] | SMILES
61 to 62 | CC1(C)CC(=O)c2cc3c(cc2O1)OCO3
147 to 148 | O=C(O)c1ccc(OCCCO/N=C/c2ccc(C(F)(F)F)cc2)cc1NC(=O)c1ccccc1C(F)(F)F
161 to 163 | COc1cc2c(Cl)c(C#N)cnc2c(OC)c1OC
115 to 116 | CON(C)C(=O)[C@@H](CO)NC(=O)OC(C)(C)C
178 | CS(=O)(=O)C(=C1CN(C(c2ccccc2)c2ccccc2)C1)c1cccc(C(F)(F)F)c1
134 to 136 | CC(=O)NC[C@H]1CN(c2ccc(N3CCC(O)(CN=[N+]=[N-])CC3)cc2)C(=O)O1
186 | COc1ccc2c(c1)C=Cc1cc(C)ccc1C2c1cn(-c2ccnc(N(C)CC(=O)Nc3nc(CC(=O)O)cs3)n2)c(=O)[nH]c1=O (centres undefined)
211 to 213 | Cc1ccccc1C(=O)Nc1ccc(C(=O)N2CCCC(NC=O)c3ccccc32)cc1 (centres undefined)
80 | COC(=O)[C@@H]1CCN1S(=O)(=O)c1ccc(Cl)c(COc2cccc3c(-n4ccnc4)cc(C)nc23)c1Cl
106 to 109 | CNC(=O)CS(=O)(=O)c1ccccc1
186 to 188 | CN(C)C=NS(=O)(=O)c1cc2cnc(C=O)cc2o1
78 to 79 | COC(=O)Cc1cnc(-c2ccccc2)n1Cc1ccccc1
223 | O=C(O)CCCCN1C(=O)c2ccc(C(=O)O)cc2C1=O
149 to 151 | O=S(=O)(Nc1cc(Br)nc(Br)c1)c1cccc(C(F)(F)F)c1
148 to 150 | CCC1(CCCCN2CCN(c3ccc(Cl)cc3)CC2)C(=O)Nc2ccc(F)cc21 (centres undefined)
291 to 296 | Cc1noc(=O)c2ccc(N)cc12
113 to 115 | O=C(O)c1ccc(NCCCCCCCCc2ccccc2)cc1

melting point [°C] | SMILES
80 to 81 | CC1(C)C2CC=C(CCn3c(=O)nc(-c4ccccc4)c4cc([N+](=O)[O-])ccc43)C1C2 (centres undefined)
90 to 91 | CC1CN(C)Cc2cc(-c3ccccc3)n(Cc3ccccc3)c21 (centres undefined)
232 to 234 | Nc1nc2c(sc(=O)n2C2OC(CO)C(O)C2F)c(=O)[nH]1 (centres undefined)
188 to 190 | CCCCNC(=O)NS(=O)(=O)c1ccc(CCNC(=O)N2Cc3ccccc3C2=O)cc1
186 to 188 | NC1CC2c3ccccc3Cc3ccccc3N2C1=O (centres undefined)
155 to 157 | NS(=O)(=O)c1cccc(C2(O)CCC2)c1
204 to 206 | Oc1ccc(-c2nnc(-c3ccc(Oc4ccccc4)cc3)o2)cc1
197 to 199 | CCCc1c(OCc2ccccc2)ccc2c(=O)cc(CO)[nH]c12
172 to 174 | CC(C)(C)OC(=O)CCc1nc(C(=O)OC(C)(C)C)ccc1O
260 to 261 | CCOC(=O)c1cnc2sc(-c3ccc([N+](=O)[O-])cc3)c(C)c2c1O
60 | COC(=O)Cc1ccc(OCCNC(=O)C2Cc3ccccc3N2S(=O)(=O)c2ccc(-c3cccc(C(F)(F)F)c3)c(C)c2)cc1 (centres undefined)
218 to 219 | N#CCCNC(=O)c1cccc(-c2ccc3ncn(Cc4ccc(Cl)cc4Cl)c3n2)c1
132 to 134 | COC(=O)C(C)(C)OCc1cc2cc(Cl)ccc2n1S(=O)(=O)c1ccc2sc(C)nc2c1
131 to 133 | CN(C)C=C1CCN(c2ccccc2)c2ccccc2C1=O
146 to 148 | Cn1ccnc1CC(O)C(F)(F)F (centres undefined)
172 | C=CCNC(=S)N1CCc2[nH]cnc2C1
139 to 140 | CC(=O)c1ccc(-c2ccc(Cl)cc2)c(N)c1
